According to US20210084900A1, “Substituted 5-(haloalkyl)-5-hydroxy-isoxazoles for Combating Phytopathogenic Fungi” (BASF SE, priority 2017, published 2021):

Tests used:
[1] = test system: Sclerotinia sclerotiorum; experiment: Preventative fungicidal control of rape stem rot on soy beans (glass house trial 5); type: in vivo; conditions: 300 ppm, soy bean, untreated plants 90% diseased leaf area
Procedure: (§1) Spray solutions were prepared in several steps. A mixture was prepared of acetone and/or dimethylsulfoxide and the wetting agent/emulsifier Wettol, which is based on ethoxylated alkylphenoles, in a relation (volume) solvent-emulsifier of 99 to 1 was added to 25 mg of the compound to give a total of 5 ml. Water was then added to a total volume of 100 ml. This stock solution was diluted with the described solvent-emulsifier-water mixture to the given concentration.
5. Preventative Fungicidal Control of Rape Stem Rot on Soy Beans Caused by (Sclerotinia scierotiorum
Young seedlings of soy beans were grown in pots. These plants were sprayed to run-off with an aqueous suspension, containing the concentration of active ingredient or mixture mentioned in the table below. The next day the treated plants were inoculated: Rye and millet grains were infected with Sclerotinia sclerotiorum. After the infection the grains were air dried for a week. The grains were powdered with a mixer. A small amount of powder was brought onto the soy bean (leaves). Then the trial plants were cultivated for 7 days in a greenhouse chamber at 23° C. and a relative humidity between 80 an 85%. The extent of fungal attack on the leaves was visually assessed with a classification method: 0, 33, 50, 67 and 100% disease of leaf area and stem.

[2] = test system: Phakopsora pachyrhizi; experiment: Protective control of soy bean rust on soy beans, inoculation 1 day after spraying (glass house trial 2); type: in vivo; conditions: 600 ppm, protective (1 day), untreated plants 100% diseased leaf area
Procedure: as §1
2. Protective Control of Soy Bean Rust on Soy Beans Caused by Phakopsora pachyrhizi
Leaves of pot-grown soy bean seedlings were sprayed to run-off with an aqueous suspension, containing the concentration of active ingredient or their mixture as described below. The plants were allowed to air-dry. The trial plants were cultivated for 1 day in a greenhouse chamber at 23 to 27° C. and a relative humidity between 60 and 80%.Then the plants were inoculated with spores of Phakopsora pachyrhizi. To ensure the success the artificial inoculation, the plants were transferred to a humid chamber with a relative humidity of about 95% and 20 to 24° C. for 24 hours. The trial plants were cultivated for fourteen days in a greenhouse chamber at 23 to 27° C. and a relative humidity between 60 and 80%. The extent of fungal attack on the leaves was visually assessed as % diseased leaf area.

[3] = test system: Puccinia recondita; experiment: Preventative control of brown rust on wheat (glass house trial 6); type: in vivo; conditions: 300 ppm, preventative (inoculation 7 days after spraying), untreated plants 100% diseased leaf area
Procedure: as §1
6. Preventative Control of Brown Rust on Wheat Caused by Puccinia recondita
The first two developed leaves of pot-grown wheat seedling were sprayed to run-off with an aqueous suspension, containing the concentration of active ingredient or their mixture as described below. Seven days later the plants were inoculated with spores of Puccinia recondita. To ensure the success the artificial inoculation, the plants were transferred to a humid chamber without light and a relative humidity of 95 to 99% and 20 to 24° C. for 24 hours. Then the trial plants were cultivated for 6 days in a greenhouse chamber at 20 to 24° C. and a relative humidity between 65 and 70%. The extent of fungal attack on the leaves was visually assessed as % diseased leaf area.

Row | melting point [°C] | Structure (SMILES) | diseased leaf area [1] [%] | diseased leaf area [2] [%] | diseased leaf area [3] [%]
1 | – | CN(C(=O)c1ccc(C2=NOC(O)(C(F)(F)F)C2)cc1)c1ccccc1 (centres unmarked) [Ex-2] | 0 | 0 | –
2 | 207 | O=C(NCc1ccc(C2=NOC(O)(C(F)(F)F)C2)cc1)C1CC1 (centres unmarked) [Ex-4, N-[[4-[5-hydroxy-5-(trifluoromethyl)-4H-isoxazol-3-yl]phenyl]methyl]cyclopropanecarboxamide] | – | – | –
3 | 217 | O=C(Nc1ccccc1)c1ccc(C2=NOC(O)(C(F)(F)F)C2)cc1 (centres unmarked) [Ex-7, 4-[5-Hydroxy-5-(trifluoromethyl)-4H-isoxazol-3-yl]-N-phenyl-benzamide] | – | – | –
4 | – | COC1(C(F)(F)F)CC(c2ccc(CN(C)C(=O)C3CC3)cc2)=NO1 (centres unmarked) [Ex-13] | – | 0 | –
5 | – | CN(Cc1ccc(C2=NOC(O[Si](C)(C)C)(C(F)(F)F)C2)cc1)C(=O)C1CC1 (centres unmarked) [Ex-14] | – | 0 | –
6 | – | CC(=O)OC1(C(F)(F)F)CC(c2ccc(CN(C)C(=O)C3CC3)cc2)=NO1 (centres unmarked) [Ex-15] | 0 | 0 | 12
7 | – | CC(=O)OC1(C(F)(F)F)CC(c2ccc(CNC(=O)C3CC3)cc2)=NO1 (centres unmarked) [Ex-18] | 0 | 0 | –
8 | – | COC1(C(F)(F)F)CC(c2ccc(CNC(=O)C3CC3)cc2)=NO1 (centres unmarked) [Ex-19] | – | 0 | –
9 | – | O=C(Nc1ccccc1)c1ccc(C2=NOC(OC(=O)N3CCCC3)(C(F)(F)F)C2)cc1 (centres unmarked) [Ex-26] | 0 | – | –
10 | – | O=C(Nc1ccccc1)c1ccc(C2=NOC(OC(=O)N3CCOCC3)(C(F)(F)F)C2)cc1 (centres unmarked) [Ex-27] | 0 | – | –
11 | – | O=C(Nc1ccccc1)c1ccc(C2=NOC(OC(=O)C3CCCO3)(C(F)(F)F)C2)cc1 (centres unmarked) [Ex-28] | 0 | 0 | –
12 | – | CCOCC(=O)OC1(C(F)(F)F)CC(c2ccc(C(=O)Nc3ccccc3)cc2)=NO1 (centres unmarked) [Ex-30] | 0 | 0 | –
13 | – | CC(C)CC(=O)OCOC1(C(F)(F)F)CC(c2ccc(C(=O)Nc3ccccc3)cc2)=NO1 (centres unmarked) [Ex-40] | – | 0 | –
14 | – | CNC(=O)c1ccc(C2=NOC(OC(=O)C3CC3)(C(F)(F)F)C2)cc1 (centres unmarked) [Ex-42] | – | 0 | –
